This assay concerns the target T1, SGK1 (Homo sapiens, UniProt O00141).
T1 sequence (O00141 1-431): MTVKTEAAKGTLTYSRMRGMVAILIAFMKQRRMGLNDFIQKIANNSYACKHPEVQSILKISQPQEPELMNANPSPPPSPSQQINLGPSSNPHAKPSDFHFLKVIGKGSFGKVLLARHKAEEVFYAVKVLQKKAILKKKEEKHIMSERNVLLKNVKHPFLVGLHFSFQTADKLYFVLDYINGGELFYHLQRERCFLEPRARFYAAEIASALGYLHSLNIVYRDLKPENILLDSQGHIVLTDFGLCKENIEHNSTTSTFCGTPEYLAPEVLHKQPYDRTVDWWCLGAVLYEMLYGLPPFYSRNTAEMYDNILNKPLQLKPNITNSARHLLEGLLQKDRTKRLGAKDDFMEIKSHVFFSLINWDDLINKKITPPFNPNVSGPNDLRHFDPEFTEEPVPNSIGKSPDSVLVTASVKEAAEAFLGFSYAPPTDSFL
As to the kind of experiment: SGK1 inhibition Assay B (Echo mass spectrometry of phosphorylated peptide product). It is filed as biochemical. The note with it: 60 min at room temperature.

Consider `Cc1nc(O[C@H]2CC[C@@H](N(C)C)CC2)c(C(=O)N[C@@H]2CCCN(c3cc(-c4ccc(C(N)=O)c(F)c4)n4ncnc(N)c34)C2)s1` [Example 937, N—((R)-1-(4-Amino-7-(4-carbamoyl-3-fluorophenyl)pyrrolo[2,1-f][1,2,4]triazin-5-yl)piperidin-3-yl)-4-(((1s,4S)-4-(dimethylamino)cyclohexyl)oxy)-2-methylthiazole-5-carboxamide], for which 1 nM corresponded to half-maximal inhibition (IC50). For `Cc1nc(O[C@H]2CC[C@@H](NC(C)C)C2)c(C(=O)N[C@@H]2CCCN(c3cc(-c4ccc(C(N)=O)c(F)c4)n4ncnc(N)c34)C2)s1` [Example 940, N—((R)-1-(4-Amino-7-(4-carbamoyl-3-fluorophenyl)pyrrolo[2,1-f][1,2,4]triazin-5-yl)piperidin-3-yl)-4-(((1S,3R)-3-(isopropylamino)cyclopentyl)oxy)-2-methylthiazole-5-carboxamide] the value was 3 nM; for `Cc1nc(OC2CCCC(NC(C)C)CCC2)c(C(=O)N[C@@H]2CCCN(c3cc(-c4ccc(C(N)=O)c(F)c4)n4ncnc(N)c34)C2)s1` (stereo partly drawn) [Example 942, (R)—N-(1-(4-Amino-7-(4-carbamoyl-3-fluorophenyl)pyrrolo[2,1-f][1,2,4]triazin-5-yl)piperidin-3-yl)-4-((5-(isopropylamino)cyclooctyl)oxy)-2-methylthiazole-5-carboxamide], 4 nM; for `CN(C)C1CC2(CC(Oc3cc(Cl)sc3C(=O)N[C@@H]3CCCN(c4cc(-c5ccc(C(N)=O)c(F)c5)n5ncnc(N)c45)C3)C2)C1` (stereo partly drawn) [Example 944, (R)—N-(1-(4-Amino-7-(4-carbamoyl-3-fluorophenyl)pyrrolo[2,1-f][1,2,4]triazin-5-yl)piperidin-3-yl)-5-chloro-3-((6-(dimethylamino)spiro[3.3]heptan-2-yl)oxy)thiophene-2-carboxamide], 1 nM. As for `Cc1nc(O[C@H]2CC[C@@H](CNCC(C)(C)C)CC2)c(C(=O)N[C@@H]2CCCN(c3cc(-c4ccc(C(N)=O)c(F)c4)n4ncnc(N)c34)C2)s1` [Example 945, N—((R)-1-(4-Amino-7-(4-carbamoyl-3-fluorophenyl)pyrrolo[2,1-f][1,2,4]triazin-5-yl)piperidin-3-yl)-2-methyl-4-(((cis)-4-((neopentylamino)methyl)cyclohexyl)oxy)thiazole-5-carboxamide], the figure is 4 nM. For `CCN1CC[C@@H](Oc2cc(C(F)F)sc2C(=O)N[C@@H]2CCCN(c3cc(-c4ccc(C(N)=O)c(F)c4)n4ncnc(N)c34)C2)CC1(C)C` [Example 947, N—((R)-1-(4-amino-7-(4-carbamoyl-3-fluorophenyl)pyrrolo[2,1-f][1,2,4]triazin-5-yl)piperidin-3-yl)-5-(difluoromethyl)-3-(((R)-1-ethyl-2,2-dimethylpiperidin-4-yl)oxy)thiophene-2-carboxamide] the value was 1 nM; for `N#Cc1ccc(-c2cc(N3CCC[C@@H](NC(=O)c4sc(Cl)cc4O[C@@H]4CN5CCC4CC5)C3)c3c(N)ncnn23)cn1` [Example 950, N—((R)-1-(4-Amino-7-(6-cyanopyridin-3-yl)pyrrolo[2,1-f][1,2,4]triazin-5-yl)piperidin-3-yl)-5-chloro-3-(((S)-quinuclidin-3-yl)oxy)thiophene-2-carboxamide], 0.6 nM.

As to `CC(C)c1nc(O[C@@H]2C[C@H]3CC[C@@H](C2)N3C)c(C(=O)N[C@@H]2CCCN(c3cc(-c4ccc(=O)n(CC(F)F)c4)n4ncnc(N)c34)C2)s1` [Example 951, N—((R)-1-(4-Amino-7-(1-(2,2-difluoroethyl)-6-oxo-1,6-dihydropyridin-3-yl)pyrrolo[2,1-f][1,2,4]triazin-5-yl)piperidin-3-yl)-2-isopropyl-4-(((1R,3s,5S)-8-methyl-8-azabicyclo[3.2.1]octan-3-yl)oxy)thiazole-5-carboxamide], the half-maximal inhibitory concentration (IC50) – broadly, the concentration that inhibits the measured activity by half – worked out at 3 nM. For `Cc1nc(OC2CC3(CCN(C)CC3)C2)c(C(=O)N[C@@H]2CCCN(c3cc(-c4ccc(C#N)nc4)n4ncnc(N)c34)C2)s1` [Example 955, (R)—N-(1-(4-amino-7-(6-cyanopyridin-3-yl)pyrrolo[2,1-f][1,2,4]triazin-5-yl)piperidin-3-yl)-2-methyl-4-((7-methyl-7-azaspiro[3.5]nonan-2-yl)oxy)thiazole-5-carboxamide] the value was 17 nM. As for `Cc1nc(O[C@@H]2C[C@H]3CC[C@@H](C2)N3C(C)C)c(C(=O)N[C@@H]2CCCN(c3cc(-c4ccc(C(N)=O)c(OCC(F)F)n4)n4ncnc(N)c34)C2)s1` [Example 956, N—((R)-1-(4-Amino-7-(5-carbamoyl-6-(2,2-difluoroethoxy)pyridin-2-yl)pyrrolo[2,1-f][1,2,4]triazin-5-yl)piperidin-3-yl)-4-(((1R,3s,5S)-8-isopropyl-8-azabicyclo[3.2.1]octan-3-yl)oxy)-2-methylthiazole-5-carboxamide], the figure is 2 nM; as for `CC(=O)N1CC=C(c2cc(N3CCC[C@@H](NC(=O)c4nc(OC5CCNCC5)c(C)s4)C3)c3c(N)ncnn23)C1` [Example 957, (R)—N-(1-(7-(1-acetyl-2,5-dihydro-1H-pyrrol-3-yl)-4-aminopyrrolo[2,1-f][1,2,4]triazin-5-yl)piperidin-3-yl)-5-methyl-4-(piperidin-4-yloxy)thiazole-2-carboxamide], 0.6 nM; as for `CC(=O)N1CC=C(c2cc(N3CCC[C@@H](NC(=O)c4sc(Cl)cc4OC4C[C@@H]5CN(C)C[C@@H]5C4)C3)c3c(N)ncnn23)C1` (stereo partly drawn) [Example 958, N—((R)-1-(7-(1-acetyl-2,5-dihydro-1H-pyrrol-3-yl)-4-aminopyrrolo[2,1-f][1,2,4]triazin-5-yl)piperidin-3-yl)-5-chloro-3-(((3aR,6aS)-2-methyloctahydrocyclopenta[c]pyrrol-5-yl)oxy) thiophene-2-carboxamide], 2 nM. For `CC(C)N1CC2CC(Oc3cc(Cl)sc3C(=O)N[C@@H]3CCCN(c4cc(-c5ccc(-n6cnnn6)nc5)n5ncnc(N)c45)C3)CC2C1` (stereo partly drawn) [Example 959, N—((R)-1-(7-(6-(1H-tetrazol-1-yl)pyridin-3-yl)-4-aminopyrrolo[2,1-f][1,2,4]triazin-5-yl)piperidin-3-yl)-5-chloro-3-(((3aR,6aS)-2-isopropyloctahydrocyclopenta[c]pyrrol-5-yl)oxy) thiophene-2-carboxamide] the value was 2 nM; for `Cc1nc(O[C@@H]2C[C@H]3CC[C@@H](C2)N3CCO)c(C(=O)N[C@@H]2CCCN(c3cc(-c4ccc(-n5cnnn5)c(F)c4)n4ncnc(N)c34)C2)s1` [Example 960, N—((R)-1-(4-amino-7-(3-fluoro-4-(1H-tetrazol-1-yl)phenyl)pyrrolo[2,1-f][1,2,4]triazin-5-yl)piperidin-3-yl)-4-(((1R,3s,5S)-8-(2-hydroxyethyl)-8-azabicyclo [3.2.1]octan-3-yl)oxy)-2-methylthiazole-5-carboxamide], 1 nM; for `Cc1nc(O[C@@H]2C[C@H]3CC[C@@H](C2)N3C)c(C(=O)N[C@@H]2CCCN(c3cc(-c4ccc5c(c4)CNC5=O)n4ncnc(N)c34)C2)s1` [Example 961, N-((R)-1-(4-amino-7-(1-oxoisoindolin-5-y1)pyrrolo[2,1-f][1,2,4]triazin-5-y1)piperidin-3-y1)-2-methy1-4-(((IR,3s,5S)-8-methyl-8-azabicyclo[3.2.1]octan-3-yl)oxy)thiazole-5-carboxamide], 5 nM. `Cc1nc(O[C@@H]2C[C@H]3CC[C@@H](C2)N3C)c(C(=O)N[C@@H]2CCCN(c3cc(-c4ccc(-n5cnnn5)nc4)n4ncnc(N)c34)C2)s1` [Example 963, N-((R)-1-(7-(6-(1/-tetrazol-1-y1)pyridin-3-y1)-4-aminopyrrolo[2,1-1][1,2,4]triazin-5-y1)piperidin-3-y1)-2-methyl-4-(((IR,35,5S)-8-methy1-8-azabicyclo[3.2 1]octan-3-yl)oxy)thiazole-5-carboxamide] showed an IC50 of 3 nM. In the case of `CCN1C2CCC1CC(Oc1nc(C)sc1C(=O)NC1CCCN(c3cc(-c4ccc(C#N)nc4)n4ncnc(N)c34)C1)C2` [Example 964, N-((R)-1-(4-amino-7-(6-cyanopyridin-3-yl)pyrrolo[2,1-f][1,2,4]triazin-5-y1)piperidin-3-y1)-4-(((1R,3s,5S)-8-ethyl-8-azabicyclo[3.2.]]octan-3-y])oxy)-2-methylthiazole-5-carboxamide], 46 nM corresponded to half-maximal inhibition (IC50). In turn, `Cc1nc(OC2CC(C)(C)N(C)C(C)(C)C2)c(C(=O)N[C@@H]2CCCN(c3cc(-c4ccc(-n5cnnn5)c(F)c4)n4ncnc(N)c34)C2)s1` [Example 965, (R)—N-(1-(4-amino-7-(3-fluoro-4-(1H-tetrazol-1-yl)phenyl)pyrrolo[2,1-f][1,2,4]triazin-5-yl)piperidin-3-yl)-2-methyl-4-((1,2,2,6,6-pentamethylpiperidin-4-yl)oxy) thiazole-5-carboxamide] yielded a half-maximal inhibitory concentration (IC50) of 3 nM. As for `Cc1nc(O[C@@H]2C[C@H]3CC[C@@H](C2)N3)c(C(=O)N[C@@H]2CCCN(c3cc(-c4ccc5c(c4)OCCNC5=O)n4ncnc(N)c34)C2)s1` [Example 966, 4-(((1R,3s,5S)-8-azabicyclo [3.2.1]octan-3-yl)oxy)-N—((R)-1-(4-amino-7-(5-oxo-2,3,4,5-tetrahydrobenzo[f][1,4]oxazepin-8-yl)pyrrolo[2,1-f][1,2,4]triazin-5-yl)piperidin-3-yl)-2-methylthiazole-5-carboxamide], the figure is 8 nM.

(Values after patent publication US20260250290A1 (BRISTOL-MYERS SQUIBB COMPANY, priority 2023, published 2026).)
